# Assay results: patent US6994970B1, “Peptides for combating the autoantibodies that are responsible for dilatative cardiomyopathy (DCM)” (Fresenius Medical Care Affina GmbH, priority 1999, dated 2006)
# Tested on: auto-antibodies bound to the affinity chromatographic column
# Experiment: Eluted auto-antibodies tested for preferential binding to peptide 1 or peptide 2 bound to a solid phase
# Parameters: species or system human
# Description: After elution from the affinity matrix, the auto-antibodies bound to the affinity chromatographic column were tested for preferential binding to peptide 1 or peptide 2 by means of peptide 1 and peptide 2 bound to a solid phase. Auto-antibody type 1 prefers the binding of peptide 1, and auto-antibody type 2 prefers the binding of peptide 2.
"preferential binding of auto-antibodies to peptide 1 or peptide 2 (auto-antibodies of person 2, peptides bound to a solid phase)",Sequence,"preferential binding of auto-antibodies to peptide 1 or peptide 2 (auto-antibodies of person 1, peptides bound to a solid phase)"
preferably bind,HWWRAESDEARRSYNDPKC [Peptide 2],
,TGSFFCELWTSGKK [Peptide 1],preferably bind
